Results published in PubChem BioAssay (NCI).
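GI50 = concentration required for 50% inhibition of growth. TGI is the concentration that stops growth completely.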

Assays:
Assay in all cases: inhibition of tumour cell growth, NCI panel, 384-well format
A549 NSCLC = test system: A549 NSCLC
BT-549 breast = test system: BT-549 breast
CAKI-1 renal = test system: CAKI-1 renal
COLO 205 colon = test system: COLO 205 colon
EKVX NSCLC = test system: EKVX NSCLC
HCT-15 colon = test system: HCT-15 colon
HT29 colon = test system: HT29 colon
IGROV1 ovarian = test system: IGROV1 ovarian
KM12 colon = test system: KM12 colon
LOX IMVI melanoma = test system: LOX IMVI melanoma
MALME-3M melanoma = test system: MALME-3M melanoma
MCF7 breast = test system: MCF7 breast
MDA-MB-231 breast = test system: MDA-MB-231 breast
MDA-MB-468 breast = test system: MDA-MB-468 breast
NCI-H226 lung = test system: NCI-H226 lung
NCI-H460 NSCLC = test system: NCI-H460 NSCLC
NCI-H522 lung = test system: NCI-H522 lung
NCI/ADR-RES ovarian = test system: NCI/ADR-RES ovarian
OVCAR-5 ovarian = test system: OVCAR-5 ovarian
PC-3 prostate = test system: PC-3 prostate
RPMI-8226 leukemia = test system: RPMI-8226 leukemia
SF-268 CNS = test system: SF-268 CNS
SN12C renal = test system: SN12C renal
SNB-19 CNS = test system: SNB-19 CNS
SNB-75 CNS = test system: SNB-75 CNS
SW-620 colon = test system: SW-620 colon
T-47D breast = test system: T-47D breast
U251 glioblastoma = test system: U251 glioblastoma
UACC-257 melanoma = test system: UACC-257 melanoma
UO-31 renal = test system: UO-31 renal
A498 renal = test system: A498 renal
HCC-2998 colon = test system: HCC-2998 colon
HCT-116 colon = test system: HCT-116 colon
HL-60(TB) leukemia = test system: HL-60(TB) leukemia
HS 578T breast = test system: HS 578T breast
K-562 leukemia = test system: K-562 leukemia
MDA-MB-435 melanoma = test system: MDA-MB-435 melanoma
MOLT-4 leukemia = test system: MOLT-4 leukemia
NCI-H322M lung = test system: NCI-H322M lung
OVCAR-3 ovarian = test system: OVCAR-3 ovarian
RXF 393 renal = test system: RXF 393 renal
SF-539 CNS = test system: SF-539 CNS
SK-MEL-28 melanoma = test system: SK-MEL-28 melanoma
SK-MEL-5 melanoma = test system: SK-MEL-5 melanoma
SK-OV-3 ovarian = test system: SK-OV-3 ovarian
SR leukemia = test system: SR leukemia

COc1cccc(OCCCN)c1-c1cc(Nc2cnc(C#N)cn2)n[nH]1
TGI (A549 NSCLC): 14.2 µM | TGI (BT-549 breast): 0.0242 µM | GI50 (CAKI-1 renal): 0.0354 µM | TGI (CAKI-1 renal): 2.62 µM | GI50 (COLO 205 colon): 0.0169 µM | TGI (COLO 205 colon): 0.133 µM | TGI (EKVX NSCLC): 12.7 µM | GI50 (HCT-15 colon): 0.0121 µM | TGI (HCT-15 colon): 0.0288 µM | GI50 (HT29 colon): 0.0199 µM | TGI (HT29 colon): 0.145 µM | TGI (IGROV1 ovarian): 1.27 µM | TGI (KM12 colon): 0.0867 µM | GI50 (LOX IMVI melanoma): 0.0234 µM | TGI (LOX IMVI melanoma): 0.847 µM | TGI (MALME-3M melanoma): 0.0349 µM | TGI (MCF7 breast): 13.3 µM | GI50 (MDA-MB-231 breast): 0.0353 µM | TGI (MDA-MB-231 breast): 5.25 µM | TGI (MDA-MB-468 breast): 0.0116 µM | GI50 (NCI-H226 lung): 5.36 µM | TGI (NCI-H226 lung): 18.8 µM | GI50 (NCI-H460 NSCLC): 0.0209 µM | TGI (NCI-H460 NSCLC): 0.121 µM | GI50 (NCI-H522 lung): 0.0352 µM | TGI (NCI-H522 lung): 0.833 µM | GI50 (NCI/ADR-RES ovarian): 0.016 µM | TGI (NCI/ADR-RES ovarian): 0.0596 µM | TGI (OVCAR-5 ovarian): 0.017 µM | GI50 (PC-3 prostate): 0.0559 µM | TGI (PC-3 prostate): 13.2 µM | TGI (RPMI-8226 leukemia): 0.0278 µM | GI50 (SF-268 CNS): 0.0249 µM | TGI (SF-268 CNS): 6.59 µM | GI50 (SN12C renal): 0.0396 µM | TGI (SN12C renal): 0.761 µM | TGI (SNB-19 CNS): 0.122 µM | GI50 (SNB-75 CNS): 0.0171 µM | TGI (SNB-75 CNS): 0.49 µM | GI50 (SW-620 colon): 0.0715 µM | TGI (SW-620 colon): 2.29 µM | GI50 (T-47D breast): 1.83 µM | TGI (T-47D breast): 18.3 µM | GI50 (U251 glioblastoma): 0.0255 µM | TGI (U251 glioblastoma): 11.9 µM | GI50 (UACC-257 melanoma): 0.0181 µM | TGI (UACC-257 melanoma): 0.0814 µM | TGI (UO-31 renal): 16.3 µM

Cc1c(F)c(N)c2c(=O)cc(-c3ccc(N)c(F)c3)oc2c1F
GI50 (A498 renal): < 0.01 µM | TGI (A498 renal): 0.13 µM | GI50 (A549 NSCLC): 29.9 µM | TGI (A549 NSCLC): > 100 µM | GI50 (BT-549 breast): 16.4 µM | TGI (BT-549 breast): 40.4 µM | GI50 (CAKI-1 renal): < 0.01 µM | TGI (CAKI-1 renal): > 100 µM | GI50 (EKVX NSCLC): 2.98 µM | TGI (EKVX NSCLC): > 100 µM | GI50 (HCC-2998 colon): < 0.01 µM | TGI (HCC-2998 colon): > 100 µM | GI50 (HCT-116 colon): 28 µM | TGI (HCT-116 colon): > 100 µM | GI50 (HCT-15 colon): > 100 µM | TGI (HCT-15 colon): > 100 µM | GI50 (HL-60(TB) leukemia): 0.157 µM | TGI (HL-60(TB) leukemia): > 100 µM | GI50 (HS 578T breast): 10.7 µM | TGI (HS 578T breast): 29.5 µM | GI50 (HT29 colon): > 100 µM | TGI (HT29 colon): > 100 µM | GI50 (IGROV1 ovarian): < 0.01 µM | GI50 (K-562 leukemia): 1.75 µM | GI50 (KM12 colon): 93 µM | TGI (KM12 colon): > 100 µM | GI50 (LOX IMVI melanoma): > 100 µM | TGI (LOX IMVI melanoma): > 100 µM | GI50 (MALME-3M melanoma): 28.6 µM | TGI (MALME-3M melanoma): 86.5 µM | GI50 (MCF7 breast): < 0.01 µM | TGI (MCF7 breast): 0.0338 µM | GI50 (MDA-MB-231 breast): 26.7 µM | TGI (MDA-MB-231 breast): > 100 µM | GI50 (MDA-MB-435 melanoma): 34.9 µM | TGI (MDA-MB-435 melanoma): > 100 µM | GI50 (MDA-MB-468 breast): < 0.01 µM | GI50 (MOLT-4 leukemia): 85.1 µM | TGI (MOLT-4 leukemia): > 100 µM | GI50 (NCI-H226 lung): < 0.01 µM | GI50 (NCI-H322M lung): 24.3 µM | TGI (NCI-H322M lung): > 100 µM | GI50 (NCI-H460 NSCLC): < 0.01 µM | TGI (NCI-H460 NSCLC): > 100 µM | GI50 (NCI-H522 lung): 9.4 µM | TGI (NCI-H522 lung): 43.1 µM | GI50 (NCI/ADR-RES ovarian): 14.1 µM | TGI (NCI/ADR-RES ovarian): > 100 µM | GI50 (OVCAR-3 ovarian): 0.0251 µM | TGI (OVCAR-3 ovarian): 37.9 µM | GI50 (OVCAR-5 ovarian): < 0.01 µM | GI50 (PC-3 prostate): > 100 µM | TGI (PC-3 prostate): > 100 µM | GI50 (RPMI-8226 leukemia): 14.2 µM | TGI (RPMI-8226 leukemia): > 100 µM | GI50 (RXF 393 renal): 10.5 µM | TGI (RXF 393 renal): 31.5 µM | GI50 (SF-268 CNS): 23.2 µM | TGI (SF-268 CNS): 97.6 µM | GI50 (SF-539 CNS): 28 µM | TGI (SF-539 CNS): > 100 µM | GI50 (SK-MEL-28 melanoma): > 100 µM | TGI (SK-MEL-28 melanoma): > 100 µM | GI50 (SK-MEL-5 melanoma): < 0.01 µM | TGI (SK-MEL-5 melanoma): > 100 µM | GI50 (SK-OV-3 ovarian): 29.3 µM | TGI (SK-OV-3 ovarian): > 100 µM | GI50 (SNB-75 CNS): 10.8 µM | TGI (SNB-75 CNS): 25.2 µM | GI50 (SR leukemia): 4.12 µM | TGI (SR leukemia): > 100 µM | GI50 (SW-620 colon): > 100 µM | TGI (SW-620 colon): > 100 µM | GI50 (U251 glioblastoma): 18 µM | TGI (U251 glioblastoma): > 100 µM
